Results as given in patent US6143910A, “Methods for preparation and use of 1α, 24(S) -dihydroxy vitamin D2” (priority 1998, dated 2000).
Like-named read-outs stand apart in the source and are kept apart here.

Assays:
[1] = assay type: in vivo, rat
Method: Vitamin D2 or 24-OH-D2 was administered (either oral or intraperitoneal supplementation) to vitamin D-deficient rats. Lipid extracts of the plasma were prepared and the metabolites purified by the method of Horst et al. (Horst, R. L., Koszewski, N. J. and Reinhardt, T. A., Biochem., 29:578-82 (1990)) described below for synthesyzing standard biological 1α,24-(OH)2 D2.
Standard biological 1α,24-(OH)2 D2 was synthesized in vitro from 24-OH-D2 by incubating 10 μg of 24-OH-D2 in flask containing 5 ml of 20% kidney homogenates made from vitamin D-deficient chicks. The product of this reaction was isolated by HPLC and identified by mass spectrometry.

[2] = system: 1,25-(OH)2 D3 receptor site; details: Ishizuka et al., Steroids 1981, 1982; cited from earlier work
[3] = human, in vivo; cited from earlier work
[4] = Blood metabolite levels in osteoporotic women administered 1α-OH-D2; assay type: in vivo, human; details: one day after a single 2 μg dose of 1α-OH-D2
Method: An increase in the production of 1α,24(S)-(OH)2 D2 relative to 1α,25-(OH)2 D2 has also been observed by the present inventors in human females who received 1α-OH-D2 as part of an investigation of that drug for the treatment of osteoporosis. Following either a single dose of 2 μg of 1α-OH-D2 or daily doses of 8 μg/day for one week, blood was collected and analyzed for the metabolites 1α,24(S)-(OH)2 D2 and 1α,25-(OH)2 D2. Lipid was extracted from the blood, and the metabolites were purified by HPLC using standard methods and quantified with the radioreceptor assay produced by Incstar (Stillwater, Minn.). One day after a single 2 μg dose, the level of 1α,24(S)-(OH)2 D2 was undetectable with the 1α,25-(OH)2 D2 level being approximately 11 pg/ml. In contrast, one day following the last dose of 8 μg, the level of 1α,24(S)-(OH)2 D2 averaged 9 pg/ml with the 1α,25-(OH)2 D2 level averaging 30 pg/ml.

Q: With `C=C1CC[C@H](O)C/C1=C/C=C1\CCC[C@]2(C)[C@@H]([C@H](C)/C=C/[C@H](C)C(C)C)CC[C@@H]12` [vitamin D2] as the molecule, how does the “1α,24-(OH)2 D2 metabolite in plasma lipid extracts” value ([1]; vitamin D-deficient rats, oral or intraperitoneal, HPLC) read?
A: co-migrated on HPLC with the standard 1α,24-(OH)2 D2

Q: With `C=C1/C(=C\C=C2/CCC[C@]3(C)[C@@H]([C@H](C)CC[C@@H](O)C(C)C)CC[C@@H]23)C[C@@H](O)C[C@@H]1O` [1α,24(R)-(OH)2 D3, 1α,24(R)-dihydroxyvitamin D3] as the molecule, how does the “Binding of the 1,25-(OH)2 D3 receptor site relative to 1,25-(OH)2 D3” value [2] read?
A: more tightly than does 1,25-(OH)2 D3 itself

Q: For `C=C1CC[C@H](O)C/C1=C/C=C1\CCC[C@]2(C)[C@@H]([C@H](C)/C=C/C(C)(O)C(C)C)CC[C@@H]12` (stereo partly drawn) [24-OH-D2, 24-hydroxyvitamin D2], which “1α,24-(OH)2 D2 metabolite in plasma lipid extracts” value ([1]; rat, in vivo) is on record?
A: co-migrated on HPLC with the standard 1α,24-(OH)2 D2

Q: For `C=C1/C(=C\C=C2/CCC[C@]3(C)[C@@H]([C@H](C)CCCC(C)C)CC[C@@H]23)C[C@@H](O)C[C@@H]1O` [1α-(OH)D3, 1α-hydroxy vitamin D3], which “Safety of dosage levels of 2.0 μg/day or greater” value [3] is on record?
A: not safely obtained

Q: For `C=C1/C(=C\C=C2/CCC[C@]3(C)[C@@H]([C@H](C)/C=C/[C@H](C)C(C)C)CC[C@@H]23)C[C@@H](O)C[C@@H]1O` [1α-OH-D2, 1α-hydroxy vitamin D2], which “Blood level of metabolite 1α,24(S)-(OH)2 D2” value [4] is on record?
A: undetectable

Q: With `C=C1CC[C@H](O)C/C1=C/C=C1\CCC[C@]2(C)[C@@H]([C@H](C)CCCC(C)C)CC[C@@H]12` [vitamin D3] as the molecule, how does the 24-OH-D3 in plasma ([1]; comparable vitamin D-deficient rats) read?
A: no detectable 24-OH-D3
